Test [1] has as its system A549. In words: Antiproliferative activity against human A549 cells assessed as reduction in cell viability after 72 hrs by MTT assay. The format is functional, cell-based. Conditions: A549, 72 h. (In general: Formazan colour is commonly taken as a measure of viable cells.)
The test system of test [2] is HCT-116. In words: Antiproliferative activity against human HCT116 cells assessed as reduction in cell viability after 72 hrs by MTT assay. The format is functional, cell-based. Conditions: HCT-116, 72 h.
The test system of test [3] is MCF7. In words: Antiproliferative activity against human MCF7 cells assessed as reduction in cell viability after 72 hrs by MTT assay. The class given is functional, cell-based. The settings on record: MCF7, 72 h.
Test [4] addresses T1, Aurora kinase A (Homo sapiens, UniProt O14965).
T1 sequence (O14965 whole entry): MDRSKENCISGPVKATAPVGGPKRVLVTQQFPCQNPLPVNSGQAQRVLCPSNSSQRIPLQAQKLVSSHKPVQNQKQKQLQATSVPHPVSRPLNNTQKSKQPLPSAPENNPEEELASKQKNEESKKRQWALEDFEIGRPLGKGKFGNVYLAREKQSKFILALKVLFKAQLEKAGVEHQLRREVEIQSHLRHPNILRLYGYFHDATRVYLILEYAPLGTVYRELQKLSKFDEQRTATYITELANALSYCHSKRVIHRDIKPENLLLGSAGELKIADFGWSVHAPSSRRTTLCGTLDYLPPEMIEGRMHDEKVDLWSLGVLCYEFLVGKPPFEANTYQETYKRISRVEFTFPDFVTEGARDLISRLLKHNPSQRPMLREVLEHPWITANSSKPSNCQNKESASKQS
In words: Inhibition of Aurora A (unknown origin) after 1 hr in presence of ATP by Kinase-Glo reagent-based luminescence assay. Background: Kinase-Glo reads ATP consumption through a luciferase reaction.

Test [5] addresses T2, Aurora kinase B (Homo sapiens, UniProt Q96GD4). In words: Inhibition of Aurora B (unknown origin) after 1 hr in presence of ATP by Kinase-Glo reagent-based luminescence assay.
Test [6] concerns the target Vascular endothelial growth factor receptor 2 (Homo sapiens) (UniProt P35968). In words: Inhibition of VEGFR2 (unknown origin) at 1 uM after 1 hr in presence of ATP by Kinase-Glo reagent-based luminescence assay relative to control.
The target in test [7] is Phosphatidylinositol 4,5-bisphosphate 3-kinase catalytic subunit alpha isoform (Homo sapiens) (UniProt P42336). Nature of the test: Inhibition of PI3Kalpha (unknown origin) at 1 uM after 1 hr in presence of ATP by Kinase-Glo reagent-based luminescence assay relative to control.
Test [8] deals with Fibroblast growth factor receptor 1 (Homo sapiens) (UniProt P11362). Nature of the test: Inhibition of FGFR1 (unknown origin) at 1 uM after 1 hr in presence of ATP by Kinase-Glo reagent-based luminescence assay relative to control.
The target of test [9] is T3, Aurora kinase A (Homo sapiens) (UniProt O14965).
T3 sequence (whole entry): T1 sequence (O14965 whole entry)
In words: Inhibition of Aurora A in human HCT116 cells assessed as reduction in phosphorylation at Thr288 residue at 0.5 to 5 uM after 12 hrs by Western blot analysis. The format is cell-based. The settings on record: HCT-116. (In western blotting, separated proteins are transferred to a membrane and probed.)

Test [10] has as its target T2, Aurora kinase B. In words: Inhibition of Aurora B in human HCT116 cells assessed as reduction in phosphorylation at Thr232 residue at 0.5 to 5 uM after 12 hrs by Western blot analysis. The class given is cell-based. The settings on record: HCT-116.
Test [11] deals with HCT-116. Nature of the test: Induction of apoptosis in human HCT116 cells assessed as viable cells at 0.1 uM after 48 hrs by Annexin-V/PI-staining based flow cytometry (reference value: 89.72%). The class given is functional. The settings on record: HCT-116, 48 h, read-out: Activity.
In test [12] the test system is HCT-116. In words: Induction of apoptosis in human HCT116 cells assessed as early apoptotic cells at 0.1 uM after 48 hrs by Annexin-V/PI-staining based flow cytometry (reference value: 0.54%). The format is functional.
In test [13] the test system is HCT-116. In words: Induction of apoptosis in human HCT116 cells assessed as late apoptotic cells at 0.1 uM after 48 hrs by Annexin-V/PI-staining based flow cytometry (reference value: 3.34%). The format is functional.
For test [14], the system named is HCT-116. In words: Induction of apoptosis in human HCT116 cells assessed as necrotic cells at 0.1 uM after 48 hrs by Annexin-V/PI-staining based flow cytometry (reference value: […]). The class given is functional.
Test [15] concerns HCT-116. Nature of the test: Induction of apoptosis in human HCT116 cells assessed as viable cells at 0.5 uM after 48 hrs by Annexin-V/PI-staining based flow cytometry (reference value: 89.72%). The format is functional. The settings on record: HCT-116, 48 h, read-out: Activity.
The test system of test [16] is HCT-116. Nature of the test: Induction of apoptosis in human HCT116 cells assessed as early apoptotic cells at 0.5 uM after 48 hrs by Annexin-V/PI-staining based flow cytometry (reference value: 0.54%). The format is functional.
The subject of test [17] is HCT-116. In words: Induction of apoptosis in human HCT116 cells assessed as late apoptotic cells at 0.5 uM after 48 hrs by Annexin-V/PI-staining based flow cytometry (reference value: 3.34%). The format is functional.
In test [18] the test system is HCT-116. Nature of the test: Induction of apoptosis in human HCT116 cells assessed as necrotic cells at 0.5 uM after 48 hrs by Annexin-V/PI-staining based flow cytometry (reference value: […]). The format is functional.
For test [19], the system named is HCT-116. Nature of the test: Induction of apoptosis in human HCT116 cells assessed as viable cells at 1 uM after 48 hrs by Annexin-V/PI-staining based flow cytometry (reference value: 89.72%). The settings on record: HCT-116, 48 h, read-out: Activity. The format is functional.
In test [20] the test system is HCT-116. In words: Induction of apoptosis in human HCT116 cells assessed as early apoptotic cells at 1 uM after 48 hrs by Annexin-V/PI-staining based flow cytometry (reference value: 0.54%). The class given is functional.
Test [21] concerns HCT-116. Nature of the test: Induction of apoptosis in human HCT116 cells assessed as late apoptotic cells at 1 uM after 48 hrs by Annexin-V/PI-staining based flow cytometry (reference value: 3.34%). The format is functional.
The test system of test [22] is HCT-116. Nature of the test: Induction of apoptosis in human HCT116 cells assessed as necrotic cells at 1 uM after 48 hrs by Annexin-V/PI-staining based flow cytometry (reference value: […]). The format is functional.
For test [23], the system named is HCT-116. Nature of the test: Induction of apoptosis in human HCT116 cells assessed as necrotic cells after 48 hrs by Annexin-V/PI-staining based flow cytometry. The class given is functional, cell-based.
The test system of test [24] is HCT-116. In words: Induction of apoptosis in human HCT116 cells assessed as increase in bax protein expression at 0.5 to 5 uM after 12 hrs by Western blot analysis. The format is functional, cell-based.
In test [25] the test system is HCT-116. In words: Induction of apoptosis in human HCT116 cells assessed as decrease in bcl-xl protein expression at 0.5 to 5 uM after 12 hrs by Western blot analysis. The class given is functional, cell-based.
Test [26] deals with T4, Aurora kinase C (Homo sapiens, UniProt Q9UQB9).
T4 sequence (Q9UQB9 whole entry): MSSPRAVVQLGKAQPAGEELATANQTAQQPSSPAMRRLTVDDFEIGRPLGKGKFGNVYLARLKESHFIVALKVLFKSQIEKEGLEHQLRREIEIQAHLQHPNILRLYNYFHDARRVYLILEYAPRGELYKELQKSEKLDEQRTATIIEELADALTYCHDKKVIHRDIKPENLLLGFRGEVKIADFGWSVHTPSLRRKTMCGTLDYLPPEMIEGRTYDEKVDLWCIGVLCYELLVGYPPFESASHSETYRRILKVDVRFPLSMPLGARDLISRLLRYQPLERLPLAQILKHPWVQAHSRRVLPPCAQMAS
Description: Inhibition of recombinant full-length His-tagged human Aurora C expressed in baculovirus expression system

Calls of active or inactive are those of the source. The calls are words filed in the database; no cut-off is given here.

T2 sequence (Q96GD4 whole entry): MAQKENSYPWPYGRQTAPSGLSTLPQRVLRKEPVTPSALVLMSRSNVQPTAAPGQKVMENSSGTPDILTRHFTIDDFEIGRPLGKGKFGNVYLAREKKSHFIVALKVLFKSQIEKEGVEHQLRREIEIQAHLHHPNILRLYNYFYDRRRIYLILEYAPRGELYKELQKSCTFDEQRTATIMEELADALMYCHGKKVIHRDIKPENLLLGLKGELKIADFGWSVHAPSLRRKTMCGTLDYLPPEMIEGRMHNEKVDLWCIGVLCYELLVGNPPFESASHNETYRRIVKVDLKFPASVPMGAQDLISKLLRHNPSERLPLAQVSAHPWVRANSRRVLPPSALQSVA
Chain of Fibroblast growth factor receptor 1 (Homo sapiens) (P11362 22-822 limits assumed): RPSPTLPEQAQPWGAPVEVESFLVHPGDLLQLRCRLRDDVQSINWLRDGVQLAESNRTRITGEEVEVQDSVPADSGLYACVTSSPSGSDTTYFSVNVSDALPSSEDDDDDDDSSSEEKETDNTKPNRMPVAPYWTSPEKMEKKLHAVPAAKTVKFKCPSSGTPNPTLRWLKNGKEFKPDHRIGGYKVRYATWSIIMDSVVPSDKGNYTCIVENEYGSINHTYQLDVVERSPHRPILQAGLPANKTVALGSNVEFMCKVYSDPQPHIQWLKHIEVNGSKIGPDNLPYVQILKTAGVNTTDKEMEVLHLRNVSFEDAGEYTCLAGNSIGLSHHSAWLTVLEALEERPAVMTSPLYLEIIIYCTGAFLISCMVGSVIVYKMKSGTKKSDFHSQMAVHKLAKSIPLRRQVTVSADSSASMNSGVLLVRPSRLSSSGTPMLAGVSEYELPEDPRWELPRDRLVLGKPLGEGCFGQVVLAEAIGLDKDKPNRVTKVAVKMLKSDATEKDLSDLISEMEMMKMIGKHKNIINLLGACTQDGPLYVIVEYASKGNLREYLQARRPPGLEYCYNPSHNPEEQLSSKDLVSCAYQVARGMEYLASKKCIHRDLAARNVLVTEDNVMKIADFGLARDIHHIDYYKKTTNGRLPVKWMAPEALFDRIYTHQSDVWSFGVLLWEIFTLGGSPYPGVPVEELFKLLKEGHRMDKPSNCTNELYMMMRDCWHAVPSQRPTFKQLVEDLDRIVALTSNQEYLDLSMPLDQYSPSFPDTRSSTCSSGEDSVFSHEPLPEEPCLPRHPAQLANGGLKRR
Chain of Vascular endothelial growth factor receptor 2 (Homo sapiens) (P35968 whole entry, canonical isoform): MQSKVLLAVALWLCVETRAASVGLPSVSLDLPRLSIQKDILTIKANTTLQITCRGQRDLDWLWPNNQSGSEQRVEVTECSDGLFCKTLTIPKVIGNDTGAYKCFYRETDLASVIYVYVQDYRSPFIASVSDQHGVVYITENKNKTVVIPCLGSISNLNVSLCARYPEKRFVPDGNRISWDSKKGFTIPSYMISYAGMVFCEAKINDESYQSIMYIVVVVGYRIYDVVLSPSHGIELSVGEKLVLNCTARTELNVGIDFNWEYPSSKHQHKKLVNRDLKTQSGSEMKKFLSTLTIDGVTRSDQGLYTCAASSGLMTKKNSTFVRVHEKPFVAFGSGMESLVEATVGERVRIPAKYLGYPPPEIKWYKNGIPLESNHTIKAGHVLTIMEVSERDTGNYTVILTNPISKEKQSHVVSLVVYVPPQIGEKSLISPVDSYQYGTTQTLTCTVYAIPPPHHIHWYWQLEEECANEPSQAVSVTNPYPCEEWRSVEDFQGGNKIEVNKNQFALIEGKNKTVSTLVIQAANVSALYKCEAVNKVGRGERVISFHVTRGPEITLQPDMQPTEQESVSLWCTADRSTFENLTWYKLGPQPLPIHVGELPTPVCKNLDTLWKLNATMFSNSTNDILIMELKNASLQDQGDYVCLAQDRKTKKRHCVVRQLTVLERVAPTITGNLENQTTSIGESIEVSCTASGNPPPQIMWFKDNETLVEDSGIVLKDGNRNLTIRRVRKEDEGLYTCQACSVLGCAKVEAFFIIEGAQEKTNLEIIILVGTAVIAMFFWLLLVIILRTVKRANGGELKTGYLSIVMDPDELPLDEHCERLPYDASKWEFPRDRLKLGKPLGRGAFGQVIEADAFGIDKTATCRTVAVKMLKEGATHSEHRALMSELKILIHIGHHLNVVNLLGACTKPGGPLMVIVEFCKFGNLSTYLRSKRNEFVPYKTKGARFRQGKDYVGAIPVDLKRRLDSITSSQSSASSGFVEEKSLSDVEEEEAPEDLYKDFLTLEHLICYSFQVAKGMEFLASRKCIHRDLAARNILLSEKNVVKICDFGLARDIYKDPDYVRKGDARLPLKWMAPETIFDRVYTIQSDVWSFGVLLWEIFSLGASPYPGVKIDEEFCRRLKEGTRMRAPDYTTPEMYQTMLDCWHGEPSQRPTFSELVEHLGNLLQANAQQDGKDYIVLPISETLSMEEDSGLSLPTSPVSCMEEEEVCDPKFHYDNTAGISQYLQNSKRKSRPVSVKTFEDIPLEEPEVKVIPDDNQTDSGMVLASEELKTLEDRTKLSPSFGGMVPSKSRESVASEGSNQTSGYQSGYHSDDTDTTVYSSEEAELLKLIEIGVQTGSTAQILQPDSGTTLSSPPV
Chain of Phosphatidylinositol 4,5-bisphosphate 3-kinase catalytic subunit alpha isoform (Homo sapiens) (P42336 whole entry, canonical isoform): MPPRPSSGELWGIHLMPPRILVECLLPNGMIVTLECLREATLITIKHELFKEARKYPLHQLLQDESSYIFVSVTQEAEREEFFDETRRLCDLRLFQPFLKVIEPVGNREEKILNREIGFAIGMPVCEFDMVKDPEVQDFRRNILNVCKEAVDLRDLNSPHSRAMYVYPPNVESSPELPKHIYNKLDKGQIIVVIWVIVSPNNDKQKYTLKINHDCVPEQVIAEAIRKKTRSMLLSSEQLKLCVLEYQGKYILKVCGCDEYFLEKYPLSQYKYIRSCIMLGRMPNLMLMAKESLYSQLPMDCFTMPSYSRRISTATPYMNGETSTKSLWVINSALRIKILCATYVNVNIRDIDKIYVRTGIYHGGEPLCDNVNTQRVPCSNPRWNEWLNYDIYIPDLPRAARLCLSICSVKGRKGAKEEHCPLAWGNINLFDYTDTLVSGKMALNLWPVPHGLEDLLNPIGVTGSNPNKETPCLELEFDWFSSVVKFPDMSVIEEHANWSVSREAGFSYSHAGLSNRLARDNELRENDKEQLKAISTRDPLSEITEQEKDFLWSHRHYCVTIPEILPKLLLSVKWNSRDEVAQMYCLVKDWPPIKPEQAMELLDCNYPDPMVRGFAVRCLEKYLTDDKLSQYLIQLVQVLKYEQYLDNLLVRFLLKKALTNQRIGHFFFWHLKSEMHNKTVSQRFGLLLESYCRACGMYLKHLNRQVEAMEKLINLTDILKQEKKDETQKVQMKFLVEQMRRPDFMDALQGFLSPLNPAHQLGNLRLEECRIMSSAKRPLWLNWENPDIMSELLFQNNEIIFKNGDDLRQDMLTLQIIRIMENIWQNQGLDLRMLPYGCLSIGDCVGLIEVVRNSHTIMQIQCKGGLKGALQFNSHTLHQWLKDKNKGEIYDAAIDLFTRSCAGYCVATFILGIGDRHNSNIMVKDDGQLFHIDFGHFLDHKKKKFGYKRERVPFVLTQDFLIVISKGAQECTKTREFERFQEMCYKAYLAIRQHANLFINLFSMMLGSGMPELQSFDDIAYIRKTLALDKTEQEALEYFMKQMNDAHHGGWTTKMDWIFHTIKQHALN

As a reminder, the IC50 is the midpoint of a concentration-inhibition curve. As for `O=C(Nc1ccc(Nc2nccc(NC3CCCC3)n2)cc1)Nc1ccc(Cl)c(C(F)(F)F)c1`, the concentration for half-maximal inhibition (IC50) is 5.88 µM in [1], 2.51 µM in test [2] and 2.33 µM in test [3].

Consider `O=C(Nc1ccc(Nc2nccc(NC3CC3)n2)cc1)Nc1ccc(Cl)c(C(F)(F)F)c1`, for which the values for the IC50 in [1], in test [2] and in test [3] were 18.5 µM, 16.4 µM and 38.2 µM, respectively.

One may read the inhibition as the percentage by which the read-out fell short of the control. For the molecule `O=C(Cc1ccc(Nc2nccc(NC3CCCC3)n2)cc1)NC1CCCCC1`, the IC50 in test [1] is 12.1 µM; in [2], 1.31 µM; in test [3], 20.5 µM; in test [4] it was 0.309 µM; in test [5], 0.293 µM. Besides, the inhibition was under 1% in test [6], 2.4% in [7] and under 1% in test [8]. Besides, the inhibition result in test [9] and in test [10] was “Active” in each case. Besides, the viability at 0.1 µM in test [11] was 87.8%. In addition, the Activity in test [12] came out at 1.9%; in test [13], 5.89%; in test [14] it was 4.39%; in [16], 3.99%; in test [17], 22.54%; in [18] it was 15.45%. For the same molecule, the Activity in [20] was 0.84%; in [21], 45.64%; in [22] it was 46.07%; in test [23], “Dose-dependent effect”. Besides, the viability at 0.5 µM in [15] is 58%. Further, in test [19], the viability at 1 µM is 7.46%. For the same molecule, the result in [24] and in test [25] was Active.

Regarding `O=C(Cc1ccc(Nc2nccc(NC3CCCC3)n2)cc1)Nc1cccc(C(F)(F)F)c1`, the IC50 in test [1] came out at 3.4 µM; in [2], 2.5 µM; in test [3] it was 16.4 µM.

`O=C(CC1CCCCC1)Nc1ccc(Nc2nccc(NC3CCCC3)n2)cc1`: the IC50 was 3.94 µM in [1], 2.44 µM in [2] and 17.6 µM in test [3].

As to `O=C(Cc1cccc(C(F)(F)F)c1)Nc1ccc(Nc2nccc(NC3CCCC3)n2)cc1`, the IC50 in test [1] was 8.27 µM; in test [2], 5.44 µM; in test [3], 5.7 µM.

`O=C(Nc1ccc(Nc2nccc(NC3CCCC3)n2)cc1)NC1CCCCC1`: the IC50 stood at 5.32 µM in test [1], 1.09 µM in [2], 19.2 µM in test [3] and 0.329 µM in test [5]. Moreover, the inhibition is 4.5% in [6], 16.8% in [7] and under 1% in test [8].

With `O=C(Nc1ccc(Nc2nccc(NC3CCCC3)n2)cc1)Nc1cccc(C(F)(F)F)c1`, the IC50 in test [1] was found to be 4.9 µM; in test [2], 2.41 µM; in [3] it was 5.18 µM.

As to `O=C(Nc1ccc(Nc2nccc(NC3CCCCC3)n2)cc1)Nc1ccc(Cl)c(C(F)(F)F)c1`, the IC50 in [1] came to 7.43 µM; in test [2], 5.95 µM; in [3] it was 10.8 µM.

For the molecule `O=C(Nc1ccc(Nc2nccc(Nc3ccc(Cl)cc3)n2)cc1)Nc1ccc(Cl)c(C(F)(F)F)c1`, the IC50 in [1] is 6.32 µM; in test [2], 4.66 µM; in test [3] it was 12.8 µM.

Take `CCCNc1ccnc(Nc2ccc(NC(=O)Nc3ccc(Cl)c(C(F)(F)F)c3)cc2)n1`: the IC50 in test [1] amounted to 7.32 µM; in test [2] it was 4.24 µM; in test [3], 4.61 µM.

As for `O=C(Nc1ccc(Cl)cc1)Nc1ccc(Nc2nccc(NC3CCCC3)n2)cc1`, the values for the IC50 in test [1], in [2] and in [3] were 11.8 µM, 5.31 µM and 22 µM, respectively.

As for `O=C(Nc1ccc(Nc2nccc(Nc3ccccc3Cl)n2)cc1)Nc1ccc(Cl)c(C(F)(F)F)c1`, the IC50 is 18.6 µM in test [1], 8.1 µM in [2] and 27.9 µM in test [3].

In the case of `c1nc2nc(Nc3ccc(N4CCOCC4)cc3)nc(NC3CCCCC3)c2[nH]1` [REVERSINE], the IC50 in [26] amounted to 0.4 µM.

On to `Cc1cc(Nc2cc(N3CCN(C)CC3)nc(Sc3ccc(NC(=O)C4CC4)cc3)n2)n[nH]1` [TOZASERTIB], for which the 50% inhibitory concentration (IC50) was found to be 3.9 µM in test [1], 1.49 µM in test [2] and 17.4 µM in test [3].

Regarding `O=C(Nc1ccc(Nc2nccc(Nc3cccc(Cl)c3)n2)cc1)Nc1ccc(Cl)c(C(F)(F)F)c1`, the 50% inhibitory concentration (IC50) in test [1] worked out at 8.05 µM; in [2] it was 4.82 µM; in test [3] it was 10.4 µM.

As for `O=C(Nc1ccc(Nc2nccc(Nc3ccccc3)n2)cc1)Nc1ccc(Cl)c(C(F)(F)F)c1`, the IC50 in [1], in [2] and in [3] was over 50 µM in each case.

As to `Cn1cc(Nc2ccnc(Nc3ccc(NC(=O)Nc4ccc(Cl)c(C(F)(F)F)c4)cc3)n2)cn1`, the IC50 in test [1] turned out to be 8.61 µM; in [2] it was 4.85 µM; in test [3], 9.77 µM.
